Laboratory results: patent publication US8895738B2, “Mesoionic pyrido [1, 2-A] pyrimidine pesticides” (E I du Pont de Nemours and Company, priority 2010, dated 2014)
Structures can show the parent of a compound that is named as a salt.

Columns and labels:
Format in all cases: in vivo
[1] = system: potato leafhopper (Empoasca fabae); experiment: Test E: control of potato leafhopper on Soleil bean plant, contact and/or systemic; details: 144 h, assessed after 6 days, read-out: control efficacy: mortality
Description: For evaluating control of potato leafhopper (Empoasca fabae) through contact and/or systemic means, the test unit consisted of a small open container with a 5-6-day-old Soleil bean plant (primary leaves emerged) inside. White sand was added to the top of the soil and one of the primary leaves was excised prior to application.
Test compounds were formulated and sprayed at 250, 50, 10 and/or 2 ppm, and the tests were replicated three times as described for Test A. After spraying, the test units were allowed to dry for 1 h before they were post-infested with 5 potato leafhoppers (18-21-day-old adults). A black, screened cap was placed on the top of each test unit, and the test units were held for 6 days in a growth chamber at 24° C. and 70% relative humidity. Each test unit was then visually assessed for insect mortality.

[2] = system: Rice plants (indica cultivar ‘MTU1010’); experiment: Test J: vigor of rice crop outdoors, two foliar applications, West Godavri; details: applied twice, 48 days after first application, Nilaparvata lugens level high
Description: (§1) To evaluate the effect of application of a compound of the invention on the vigor of rice crops grown under outdoor conditions, Tests 1 through 0 were conducted. “a.i.” refers to the amount of active ingredient applied.
Rice plants (indica cultivar ‘MTU1010’) were transplanted into flooded 5 m×3 m test plots of clay loam soil in the delta region of the West Godavri district, Andhra Pradesh, India, during the rainy season, and grown using local agronomic practices. After 52 days, aqueous mixtures of Compound 3 were applied to the foliage of the rice plants at 12.5, 25 or 50 g a.i./ha in a spray volume of 387 L/ha using a backpack sprayer. Plots of unsprayed rice plants were used as controls. Each treatment and control was replicated three times, and the plots were arranged in a randomized complete block design. At the time of application of Compound 3, the pest level of rice brown planthopper (Nilaparvata lugens) was high, i.e. much above the level considered economically significant. 20 days after the first treatment, the foliar applications of aqueous mixtures of Compound 3 were repeated at the same application rates in a spray volume of 467 L/ha.

[3] = system: Rice plants (indica cultivar ‘JAYA’); experiment: Test K: vigor, height and panicle length of rice crop outdoors, Gujarat; details: for crop vigor (visual rating, 0 to 200% scale, untreated = 100%): 32 days after application, Nilaparvata lugens level moderate; for average height of rice plants / average panicle length of rice plants: 45 days after application; for average height of rice plants: untreated 0.78 m; for average panicle length of rice plants: untreated 22.4 cm
Description: as §1
Rice plants (indica cultivar ‘JAYA’) were transplanted into flooded 6 m×5 m test plots of clay loam soil under shade cloth in the State of Gujarat, India during the hot season before monsoon arrival, and grown using local agronomic practices. Accordingly, after 44 days from transplanting, all rice plants in this test were sprayed with an aqueous mixture containing 30 g a.i./ha of cypermethrin and 100 g a.i./ha of picoxystrobin. After 53 days from transplanting, aqueous mixtures of Compound 3 were applied to the foliage of the rice plants at 6.25, 12.5, 25 or 50 g a.i./ha in a spray volume of 500 L/ha using a backpack sprayer. Plots of unsprayed rice plants were used as controls. Each treatment and control was replicated three times, and the plots were arranged in a randomized complete block design. At the time of application of Compound 3, the pest level of rice brown planthopper (Nilaparvata lugens) was moderate, but still above the level considered economically significant.
At 45 days after application, the height and panicle length of the rice plants were measured. Plant height was determined by measuring length from vertically extended longest leaf tip to soil surface. Panicle length was measured similarly. The average height of rice plants treated with 6.25, 12.5, 25 and 50 g a.i./ha of Compound 3 was 0.94, 0.92, 0.92 and 0.99 m, respectively, compared to 0.78 m for untreated control plants. The average panicle length of rice plants treated with 6.25, 12.5, 25 and 50 g a.i./ha of Compound 3 was 23.8, 23.7, 24.9 and 24.6 cm, respectively, compared to 22.4 cm for untreated control plants.

[4] = system: Rice plants (indica cultivar ‘IR-64’); experiment: Test O: harvest yield of rice crop outdoors, Bargarh; details: 12.5, 25 and 50 g a.i./ha (method: 6.25, 12.5, 25 or 50), with indoxacarb and chlorantraniliprole, controls 1370 kg/ha
Description: as §1
Rice plants (indica cultivar ‘IR-64’) were transplanted into flooded 5 m×5 m test plots of clay loam soil the Bargarh district, Orissa, India, at the end of the winter season, and grown using local agronomic practices. After 79 days, aqueous mixtures containing 30 g a.i./ha of indoxacarb in form of STEWARD® Insecticide, 20 g a.i./ha of chlorantraniliprole, and 6.25, 12.5, 25 or 50 g a.i./ha of Compound 3 were applied to the foliage of the rice plants at in a spray volume of 500 L/ha using a backpack sprayer. Plots of control rice plants were sprayed with an aqueous mixture containing 30 g a.i./ha of indoxacarb in form of STEWARD® Insecticide and 20 g a.i./ha of chlorantraniliprole (i.e. no Compound 3). Each treatment and control was replicated three times, and the plots were arranged in a randomized complete block design. At the time of application of Compound 3, the pest level of rice brown planthopper (Nilaparvata lugens) was high, i.e. much above the level considered economically significant.
Harvest yields from the crops treated with 12.5, 25 and 50 g a.i./ha of Compound 3 were 2470, 3430, 3470 and 4600 kg/ha, respectively, compared to 1370 kg/ha from the untreated controls.

## O=c1c(-c2cccc(C(F)(F)F)c2)c([O-])[n+](Cc2cncnc2)c2ccccn12 [Compound 3, 2-hydroxy-4-oxo-1-(5-pyrimidinylmethyl)-3-[3-(trifluoromethyl)phenyl]-4H-pyrido[1,2-a]pyrimidinium inner salt]
[1]; sprayed at 10 ppm
  mortality at 10 ppm: ≥ 80%
[1]; sprayed at 50 ppm
  mortality at 50 ppm: ≥ 80%
[1]; sprayed at 250 ppm
  mortality at 250 ppm: ≥ 80%
[2]; 12.5 g a.i./ha foliar
  crop vigor (visual rating, 0 to 200% scale, untreated = 100%): 148%
[2]; 25 g a.i./ha foliar
  crop vigor (visual rating, 0 to 200% scale, untreated = 100%): 148%
[2]; 50 g a.i./ha foliar
  crop vigor (visual rating, 0 to 200% scale, untreated = 100%): 148%
[3]; 6.25 g a.i./ha foliar
  crop vigor (visual rating, 0 to 200% scale, untreated = 100%): 115%
[3]; 6.25 g a.i./ha
  average height of rice plants: 0.94 m
  average panicle length of rice plants: 23.8 cm
[3]; 12.5 g a.i./ha foliar
  crop vigor (visual rating, 0 to 200% scale, untreated = 100%): 113%
[3]; 12.5 g a.i./ha
  average height of rice plants: 0.92 m
  average panicle length of rice plants: 23.7 cm
[3]; 25 g a.i./ha foliar
  crop vigor (visual rating, 0 to 200% scale, untreated = 100%): 122%
[3]; 25 g a.i./ha
  average height of rice plants: 0.92 m
  average panicle length of rice plants: 24.9 cm
[3]; 50 g a.i./ha foliar
  crop vigor (visual rating, 0 to 200% scale, untreated = 100%): 115%
[3]; 50 g a.i./ha
  average height of rice plants: 0.99 m
  average panicle length of rice plants: 24.6 cm
[4]; 1st of four values
  harvest yield: 2470 kg/ha
[4]; 2nd of four values
  harvest yield: 3430 kg/ha
[4]; 3rd of four values
  harvest yield: 3470 kg/ha
[4]; 4th of four values
  harvest yield: 4600 kg/ha
